# Data published in US20240390448A1, “USE OF TRADITIONAL CHINESE MEDICINE COMPOSITION IN PREPARATION OF DRUGS FOR TREATING NEUROGENIC PULMONARY EDEMA” (SHANDONG NEW TIME PHARMACEUTICAL CO., LTD., priority 2021, published 2024).
# Test system: spinal cord injury-induced neurogenic pulmonary edema
# Assay: Model of spinal cord injury-induced neurogenic pulmonary edema (laminectomy and spinal cord injury)
# Type: in vivo, ICR mice
# Settings: mice, example 1 granule 18 g/kg intragastric, dexamethasone 0.025 mg/kg intramuscular, 2 consecutive days from 24 h after molding, lungs taken on 3rd day, n = 8, x ± s
# Description: It is a typical molding method of an animal with neurogenic pulmonary edema by performing laminectomy on a rate to cause spine injury and thus inducing pulmonary edema of the mouse. The molding method is simple and easy to implement and high in success rate.
# 4-6 week old male ICR mice weighed 23-25 g were provided by the Lunan Pharmaceutical Co., Ltd and adaptively fed for one week before an experiment.
# 40 mice were taken and randomly divided into a sham surgery group, a model group, a dexamethasone group, an example 1 granule group, and a dexamethasone+example 1 granule group, with 8 mice in each group. The rats in the sham surgery group were subjected to laminectomy without spinal cord injury, while the rats in the model group and each administration group were subjected to laminectomy and spinal cord injury. […] The animals were anesthetized and sacrificed on the 3rd of the molding, the lungs were taken out, the wet weight was weighed, the lungs were placed in a 60° C. oven for drying for 48 h and taken out, the dry weight was weighed, and a ratio of wet weight/dry weight was calculated.
compound,measurement,value
"C[C@@H]1C[C@H]2[C@@H]3CCC4=CC(=O)C=C[C@]4(C)[C@@]3(F)[C@@H](O)C[C@]2(C)[C@@]1(O)C(=O)CO [Dexamethasone, dexamethasone]",Lung wet weight/dry weight,4.92 ± 0.13
